The values below come from patent US9895363B2, “Methods for modulating function of proliferating cell nuclear antigen (PCNA) and treating cancer with PCNA-targeting compounds” (University of Cincinnati, priority 2010, dated 2018).

Like-named read-outs stand apart in the source and are kept apart here.

One assay deals with PC-3 cells. The assay is described as follows: Cell growth after single 24 H pre-treatment (Alamar blue). The format is cell-based, Human. The note with it: 0.5 μM for 24 H, washed, Alamar blue up to 144 H; FIG. 1. The text has this:
The necessity of a continuous presence of PCNA-I1 for cell growth was also investigated.
(In general: The colour change of resazurin is a common sign of viable cells or microbes.)

The test system of assay [1] is LNCaP prostate cancer cells. As to the kind of experiment: Growth inhibition by MTT staining, LNCaP. The format is cell-based, Human. Particulars: 96 h, Table II, Human tumor cells, treated four days, mean of five to seven experiments, read-out: IC50 Values, LNCaP. The protocol: (§1) Growth inhibitory effects of PCNA-I1 and PCNA-I2 were assessed in human cancer cell lines, mouse cancer cell lines, immortalized mouse cell lines, and human primary cell lines. Specifically, growth inhibitory effects of PCNA-I1 and PCNA-I2 were assessed using MTT staining in the following cells lines: 1) human cancer cell lines including LNCaP (androgen receptor […]), 22Rv1, DU-145, LAPC-4, and PC-3 (androgen receptor […]) prostate cancer cells; MCF-7 and T47D breast cancer cells; A375 and MDA-MB435 melanoma cells; 2) mouse cancer cell lines including TRAMP-C2RE3 prostate cancer cells, B16 and K1735 melanoma cells, UV2237 fibrosarcoma cells, and CT-26 colon cancer cells; 3) immortalized mouse lung cell lines and mouse endothelial cell lines; and 4) primary human cell lines including umbilical endothelial cells (HUVEC, PromoCell, Heidelberg, Germany), primary bone marrow mesenchymal stem cells (HuMSC, PromoCell), primary human mammary epithelial cells (HuBrEC, Lonza, Walkersville, Md.), primary human prostate epithelial cells (HuPrEC, Lonza), and primary mouse spleen lymphocytes (isolated in this laboratory), and primary mouse bone marrow stromal cells (isolated in this laboratory). PCNA-I1 and PCNA-I2 were either provided by the University of Cincinnati Drug Discovery Center (UC-DDC, Cincinnati, Ohio) or were purchased from Chembridge Co (San Diego, Calif.), ChemDiv (San Diego, Calif.), and/or Sigma-Aldrich (St Louis, Mo.).
Growth inhibitory effects of the compounds were assessed by MTT staining as described previously by Dong et al. in In Vitro Model for Intrinsic Drug Resistance: Effects of Protein Kinase C Activators on the Chemosensitivity of Cultured Human Colon Cancer Cells; Mol. Pharmacol. 1991; 39: 563-9. Briefly, cells were cultured and treated in their respective media. Cells were plated into 96-well plates at 1000 to 5000 cells/well. After an overnight incubation, the cells were treated for four days with various concentrations (up to 10 μM) of PCNA-I1 or PCNA-I2. The live cells were stained with MTT and cells in exponential growth phase were harvested by a one to three minute treatment with a 0.25% trypsin-0.02% EDTA solution. Flasks were tapped to detach the cells, RPMI 1640-10% FBS was added, and the cell suspensions were gently agitated to produce single-cell suspensions. The cell suspensions were washed and resuspended in medium with supplements specified for different cells. Only suspensions of single cells with a viability exceeding 95% (ascertained by trypan blue exclusion) were used.
(§2) IC50 values were derived from growth inhibition curves. Data for tumor cells are a mean of five to seven experiments. Data for primary cells are a mean of three experiments. […] Inhibition of cell growth was calculated using the formula: growth inhibition (%)=(1−A570 of treated/A570 of control)×100. IC50 (the concentration that inhibited cell growth by 50%) values were also determined. For evaluation of lymphocyte growth in suspension, an Alamar blue assay was performed, wherein freshly prepared mouse spleen lymphocytes were stimulated for 72 H with 2 ug/mL concanavalin A (Sigma Chemicals, St. Louis, […].). During the last 24 H, 20 μl/well of Alamar blue (Invitrogen, Carlsbad, Calif.) was added. The fluorescence intensity was measured at 530/580 (excitation/emission) in the FLUOstar Omega microplate reader (BMG LABTECH, Cary, N.C.).
Growth inhibitory effects of PCNA-I3, PCNA-I4, PCNA-I6, PCNA-I7, PCNA-I8, PCNA-I9 and PCNA-I10 were assessed in human prostate cancer cell lines. Specifically, growth inhibitory effects of PCNA-I3, PCNA-I4, PCNA-I6, PCNA-I7, PCNA-I8, PCNA-I9 and PCNA-I10 were assessed using MTT staining in LNCaP and PC-3 cells. […]

The next assay deals with LNCaP cells. The assay is described as follows: MTT assay, PCNA-I1 and cisplatin alone or combined, LNCaP. In kind it is cell-based, Human. The note with it: Homo sapiens, LNCaP. The protocol:
LNCaP or PC-3 cells were treated with a variety of concentrations of PCNA-I1 (0.1-10 μM) or cisplatin (0.1-10 μM) alone, or with a variety of concentrations of a combination of PCNA-I1 (0.1-10 μM) and cisplatin (0.1-10 μM) for four days. MTT assays were performed and IC50 values for PCNA-I1 and cisplatin were determined.

The test system of another assay is Normal Cells. As to the kind of experiment: Growth inhibition, mean over normal cells. In kind it is cell-based. The protocol: as §1, with “PCNA-I1 and PCNA-I2 were either provided by the University of Cincinnati Drug Discovery Center (UC-DDC, Cincinnati, Ohio) or were purchased from Chembridge Co (San Diego, Calif.), ChemDiv (San Diego, Calif.), and/or Sigma-Aldrich (St Louis, Mo.).” left out
(§3) IC50 values were derived from growth inhibition curves. […] Inhibition of cell growth was calculated using the formula: growth inhibition (%)=(1−A570 of treated/A570 of control)×100. […]

For assay [2], the system named is UV2237 fibrosarcoma cells. The assay is described as follows: Growth inhibition by MTT staining, UV2237. The note with it: 96 h, Mouse, treated four days. The format is cell-based. The protocol:
as §1, with “PCNA-I1 and PCNA-I2 were either provided by the University of Cincinnati Drug Discovery Center (UC-DDC, Cincinnati, Ohio) or were purchased from Chembridge Co (San Diego, Calif.), ChemDiv (San Diego, Calif.), and/or Sigma-Aldrich (St Louis, Mo.).” left out
as §3

Assay [3] has as its system MCF-7 breast cancer cells. As to the kind of experiment: Growth inhibition by MTT staining, MCF-7. The format is cell-based. Particulars: MCF7, 96 h, Human, tumor cells, treated four days. The protocol: as §1, with “PCNA-I1 and PCNA-I2 were either provided by the University of Cincinnati Drug Discovery Center (UC-DDC, Cincinnati, Ohio) or were purchased from Chembridge Co (San Diego, Calif.), ChemDiv (San Diego, Calif.), and/or Sigma-Aldrich (St Louis, Mo.).” left out
as §3

The test system of assay [4] is primary mouse spleen lymphocytes. The assay is described as follows: Alamar blue assay of lymphocyte growth. In kind it is cell-based. The note with it: for IC50: Lymphocyte. The protocol: as §2
The effects of PCNA-I1 on growth of tumor cells versus primary cells was also investigated. Specifically, the effects of PCNA-1I on the growth of primary cells was investigated using primary culture of mouse lymphocytes. An Alamar blue assay was performed with PC-3 cells as a positive control. Freshly prepared mouse spleen lymphocytes were stimulated for 72 H with 2 μg/mL of concanavalin A. During the last 24 H, 20 μL/well of alamar blue was added. The fluorescence intensity was measured at 530/580 (excitation/emission).

Assay [5] has as its system LAPC-4 prostate cancer cells. As to the kind of experiment: Growth inhibition by MTT staining, LAPC-4. The format is cell-based. Particulars: LAPC4, 96 h, Human tumor cells, treated four days. The protocol:
as §1, with “PCNA-I1 and PCNA-I2 were either provided by the University of Cincinnati Drug Discovery Center (UC-DDC, Cincinnati, Ohio) or were purchased from Chembridge Co (San Diego, Calif.), ChemDiv (San Diego, Calif.), and/or Sigma-Aldrich (St Louis, Mo.).” left out
as §3

Assay [6] concerns CT26-R500 murine colon cancer cell line. As to the kind of experiment: Growth inhibition by MTT staining, CT26-R500. The note with it: Mouse tumor cells; cell line not given; read-out: IC50 Values, cell line cell blank (third row below UV2237). The format is cell-based. The protocol: as §1, with “PCNA-I1 and PCNA-I2 were either provided by the University of Cincinnati Drug Discovery Center (UC-DDC, Cincinnati, Ohio) or were purchased from Chembridge Co (San Diego, Calif.), ChemDiv (San Diego, Calif.), and/or Sigma-Aldrich (St Louis, Mo.).” left out
as §3

Take `Cc1ccsc1C(=O)N/N=C/c1ccc2ccccc2c1O` [PCNA-I1]: the “Duration of growth inhibition after single one-day pre-treatment” value in the assay on PC-3 cells is “sufficient to inhibit cell growth for up to seven days”. Further, the IC50 in assay [1] stood at 140 nM; in the assay on LNCaP cells (96 h, MTT, four days, single agent, read-out: IC50 doses for cell growth inhibition, LNCaP, agent alone), 230 nM; in the assay on LNCaP cells (combined with 0.3 μM cisplatin, read-out: PCNA-I1 concentration giving 50% inhibition in combination, LNCaP), 67 nM; with Normal Cells (mean over all normal cells, read-out: IC50 Values, Normal Cells, Mean ± SD), 1430 ± 450 nM; in [2], 250 nM; in [3] it was 150 nM. Further, the IC50 is 1500 nM in assay [4] (FIG. 2(B), Alamar blue assay, mouse spleen lymphocytes, read-out: IC50, lymphocytes); 1500 nM in [4] (Mouse, normal cells, Alamar blue, read-out: IC50 Values, Spleen Lymphocytes); 300 nM in assay [5]; 70 nM in assay [6]. For the same compound, the “Concentrations inhibiting growth of normal cells by 50% relative to those for tumor cells” value in the assay on Normal Cells (normal vs tumor cells, p<0.001) was “approximately 8 times”. Besides, the “Lymphocyte growth at low concentrations” value in assay [4] (with or without concanavalin A) is reported as “promoted lymphocyte growth at concentrations below the cytotoxic or cytostatic doses”.
